As a reminder, the IC50 is the concentration that gives 50% inhibition.

The experiment deals with T1, N-terminally GST-tagged human full length recombinant Mps-1 kinase (Homo sapiens, UniProt P33981).
T1 construct: N-terminally GST-tagged human full length recombinant Mps-1 kinase; purchased Invitrogen, Karslruhe, Germany PV4071
T1 sequence (P33981 1-857): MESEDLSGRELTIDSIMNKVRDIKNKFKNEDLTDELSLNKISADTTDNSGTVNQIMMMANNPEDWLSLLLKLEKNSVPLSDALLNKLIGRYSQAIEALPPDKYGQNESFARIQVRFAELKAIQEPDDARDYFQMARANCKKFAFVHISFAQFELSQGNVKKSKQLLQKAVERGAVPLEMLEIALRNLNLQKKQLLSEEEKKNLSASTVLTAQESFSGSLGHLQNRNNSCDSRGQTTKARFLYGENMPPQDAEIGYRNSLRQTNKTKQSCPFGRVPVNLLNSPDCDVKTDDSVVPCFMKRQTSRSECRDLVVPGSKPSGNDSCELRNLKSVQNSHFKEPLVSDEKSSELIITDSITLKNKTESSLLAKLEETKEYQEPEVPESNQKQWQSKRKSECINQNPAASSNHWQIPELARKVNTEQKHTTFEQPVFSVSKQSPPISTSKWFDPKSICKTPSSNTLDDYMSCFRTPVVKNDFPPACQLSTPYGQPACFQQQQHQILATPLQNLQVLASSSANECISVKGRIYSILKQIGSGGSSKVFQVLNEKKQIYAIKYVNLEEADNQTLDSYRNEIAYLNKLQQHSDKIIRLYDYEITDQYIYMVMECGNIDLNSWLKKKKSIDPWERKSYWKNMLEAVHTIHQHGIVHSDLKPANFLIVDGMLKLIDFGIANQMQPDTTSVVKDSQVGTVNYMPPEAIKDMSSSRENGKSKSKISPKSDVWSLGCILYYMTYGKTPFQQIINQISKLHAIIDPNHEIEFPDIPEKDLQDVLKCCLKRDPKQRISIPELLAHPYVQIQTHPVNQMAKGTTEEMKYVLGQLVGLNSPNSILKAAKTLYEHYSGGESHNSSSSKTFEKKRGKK
The experiment in a line: Mps-1 kinase assay (TR-FRET). The experiment is classed as biochemical. To be noted: Mps1 IC50 [nM], 10 μM ATP, 1 μM peptide substrate, 60 min at 22° C. Summed up: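 GST-tagged full-length recombinant Mps-1 at about 1 nM final, adjusted per lot for linear range, phosphorylated a biotinylated peptide. Product bound Eu-anti-phospho(Ser/Thr) antibody over 1 h at 22° C and was read by TR-FRET to streptavidin-XLent. Compounds scored for kinase inhibition.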
(Time-resolved FRET reads energy transfer from a long-lived donor to a nearby acceptor.)
Regarding `CNC(=O)c1ccc(-c2cnc3c(NCC4CCOCC4)cc(Oc4ccc(OC)c(F)c4)nn23)cc1C` [Example 573, 4-{6-(3-fluoro-4-methoxyphenoxy)-8-[(tetrahydro-2H-pyran-4-ylmethyl)amino]imidazo[1,2-b]pyridazin-3-yl}-N,2-dimethylbenzamide], the concentration for half-maximal inhibition (IC50) was under 1 nM.

With `CNC(=O)c1ccc(-c2cnc3c(NCCC(F)(F)F)cc(Oc4cccc(F)c4)nn23)cc1C` [Example 575, 4-{6-(3-fluorophenoxy)-8-[(3,3,3-trifluoropropyl)a-mino]imidazo[1,2-b]pyridazin-3-yl}-N,2-dimethylbenzamide], the IC50 is under 1 nM. Then `CNC(=O)c1ccc(-c2cnc3c(NCCC(F)(F)F)cc(Oc4ccc(OC)cc4F)nn23)cc1C` [Example 576, 4-{6-(2-fluoro-4-methoxyphenoxy)-8-[(3,3,3-trifluoropropyl)a-mino]imidazo[1,2-b]pyridazin-3-yl}-N,2-dimethylbenzamide], with under 1 nM.

As to `CNC(=O)c1ccc(-c2cnc3c(NCCC(F)(F)F)cc(Oc4cc(F)ccc4C)nn23)cc1C` [Example 577, 4-{6-(5-fluoro-2-methylphenoxy)-8-[(3,3,3-trifluoropropyl)a-mino]imidazo[1,2-b]pyridazin-3-yl}-N,2-dimethylbenzamide], the IC50 was determined as 1.4 nM.

For the compound `CNC(=O)c1ccc(-c2cnc3c(NCC(F)F)cc(Oc4ccc(OC)cc4F)nn23)cc1C` [Example 580, 4-{8-[(2,2-difluoroethyl)amino]-6-(2-fluoro-4-meth-oxyphenoxy)imidazo[1,2-b]pyridazin-3-yl}-N,2-dimethylbenzamide], the IC50 is under 1 nM. With `CNC(=O)c1ccc(-c2cnc3c(NCCOC)cc(Oc4cccc(F)c4F)nn23)cc1C` [Example 581, 4-{6-(2,3-difluoro-phenoxy)-8-[(2-methoxyethyl)a-mino]imidazo[1,2-b]pyridazin-3-yl}-N,2-dimethylbenzamide] the figure was under 1 nM.

`CNC(=O)c1ccc(-c2cnc3c(NCCOC)cc(Oc4ccc(F)c(F)c4)nn23)cc1C` [Example 582, 4-{6-(3,4-difluorophenoxy)-8-[(2-methoxyethyl)a-mino]imidazo[1,2-b]pyridazin-3-yl}-N,2-dimethylbenzamide]: the IC50 was 3.8 nM. Then `CNC(=O)c1ccc(-c2cnc3c(NCCOC)cc(Oc4ccccc4C)nn23)cc1C` [Example 583, 4-{8-[(2-methoxyethyl)amino]-6-(2-methylphenoxy)imidazo[1,2-b]pyridazin-3-yl}-N,2-dimethylbenzamide], with 6.9 nM.

Consider `CNC(=O)c1ccc(-c2cnc3c(NCCOC)cc(Oc4ccc(OC)cc4F)nn23)cc1C` [Example 584, 4-{6-(2-fluoro-4-methoxyphenoxy)-8-[(2-methoxyethyl)a-mino]imidazo[1,2-b]pyridazin-3-yl}-N,2-dimethylbenzamide], for which the IC50 amounted to 2.3 nM.

For the compound `CNC(=O)c1ccc(-c2cnc3c(NCCOC)cc(Oc4cc(F)ccc4C)nn23)cc1C` [Example 585, 4-{6-(5-fluoro-2-methylphenoxy)-8-[(2-methoxyethyl)a-mino]imidazo[1,2-b]pyridazin-3-yl}-N,2-dimethylbenzamide], the IC50 was 5.4 nM. Take `CNC(=O)c1ccc(-c2cnc3c(NCCOC)cc(Oc4ccc(OC)c(F)c4)nn23)cc1C` [Example 586, 4-{6-(3-fluoro-4-methoxyphenoxy)-8-[(2-methoxyethyl)a-mino]imidazo[1,2-b]pyridazin-3-yl]-N,2-dimethylbenzamide]: the half-inhibitory concentration (IC50) is 1 nM. Then `CNC(=O)c1ccc(-c2cnc3c(NCCOC)cc(Oc4ccccc4)nn23)cc1C` [Example 587, 4-{8-[(2-methoxyethyl)amino]-6-phenoxyimidazo[1,2-b]pyridazin-3-yl}-N,2-dimethylbenzamide], with 3.2 nM. Then `CCNC(=O)c1ccc(-c2cnc3c(NCCN4CCOCC4)cc(Oc4ccc(F)c(F)c4)nn23)cc1C` [Example 588, 4-[6-(3,4-difluorophenoxy)-8-{[2-(morpholin-4-yl)ethyl]amino}imidazo[1,2-b]pyridazin-3-yl]-N-ethyl-2-methylbenzamide], with 2.2 nM; and `CCNC(=O)c1ccc(-c2cnc3c(NCCN4CCOCC4)cc(Oc4ccccc4C)nn23)cc1C` [Example 589, N-ethyl-2-methyl-4-[6-(2-methylphenoxy)-8-{[2-(morpholin-4-yl)ethyl]amino}imidazo[1,2-b]pyridazin-3-yl]benzamide], with 4.3 nM. With `CCNC(=O)c1ccc(-c2cnc3c(NCCN4CCOCC4)cc(Oc4ccc(OC)cc4F)nn23)cc1C` [Example 591, N-ethyl-4-[6-(2-fluoro-4-methoxyphenoxy)-8-{[2-(morpholin-4-yl)ethyl]amino}imidazo[1,2-b]pyridazin-3-yl]-2-methylbenzamide] the figure was 2.5 nM; with `CCNC(=O)c1ccc(-c2cnc3c(NCCN4CCOCC4)cc(Oc4cc(F)ccc4C)nn23)cc1C` [Example 592, N-ethyl-4-[6-(5-fluoro-2-methylphenoxy)-8-{[2-(morpholin-4-yl)ethyl]amino}imidazo[1,2-b]pyridazin-3-yl]-2-methylbenzamide], 1.5 nM; with `CCNC(=O)c1ccc(-c2cnc3c(NCCN4CCOCC4)cc(Oc4ccccc4)nn23)cc1C` [Example 593, N-ethyl-2-methyl-4-(8-{[2-(morpholin-4-yl)ethyl]amino}-6-phenoxyimidazo[1,2-b]pyridazin-3-yl)benzamide], 9 nM.

With `CCNC(=O)c1ccc(-c2cnc3c(NCC4CCOCC4)cc(Oc4ccc(F)c(F)c4)nn23)cc1C` [Example 594, 4-{6-(3,4-difluorophenoxy)-8-[(tetrahydro-2H-pyran-4-ylmethyl)amino]imidazo[1,2-b]pyridazin-3-yl}-N-ethyl-2-methylbenzamide], the IC50 was under 10 nM.

As to `CCNC(=O)c1ccc(-c2cnc3c(NCC4CCOCC4)cc(Oc4ccccc4C)nn23)cc1C` [Example 596, N-ethyl-2-methyl-4-{6-(2-methylphenoxy)-8-[(tetrahydro-2H-pyran-4-ylmethyl)a-mino]imidazo[1,2-b]pyridazin-3-yl}benzamide], the IC50 amounted to 1.1 nM. Turning to `CCNC(=O)c1ccc(-c2cnc3c(NCC4CCOCC4)cc(Oc4ccc(OC)cc4)nn23)cc1C` [Example 597, N-ethyl-4-{6-(4-methoxyphenoxy)-8-[(tetrahydro-2H-pyran-4-ylmethyl)a-mino]imidazo[1,2-b]pyridazin-3-yl}-2-methylbenzamide], the IC50 amounted to 1.1 nM. With `CCNC(=O)c1ccc(-c2cnc3c(NCC4CCOCC4)cc(Oc4ccc(OC)cc4F)nn23)cc1C` [Example 598, N-ethyl-4-{6-(2-fluoro-4-methoxyphenoxy)-8-[(tetrahydro-2H-pyran-4-ylmethyl)a-mino]imidazo[1,2-b]pyridazin-3-yl}-2-methylbenzamide] the figure was under 1 nM; with `CCNC(=O)c1ccc(-c2cnc3c(NCC4CCOCC4)cc(Oc4cc(F)ccc4C)nn23)cc1C` [Example 599, N-ethyl-4-{6-(5-fluoro-2-methylphenoxy)-8-[(tetrahydro-2H-pyran-4-ylmethyl)a-mino]imidazo[1,2-b]pyridazin-3-yl}-2-methylbenzamide], 1 nM. With `CCNC(=O)c1ccc(-c2cnc3c(NCC4CCOCC4)cc(Oc4ccc(OC)c(F)c4)nn23)cc1C` [Example 600, N-ethyl-4-{6-(3-fluoro-4-methoxyphenoxy)-8-[(tetrahydro-2H-pyran-4-ylmethyl)a-mino]imidazo[1,2-b]pyridazin-3-yl}-2-methylbenzamide] the figure was under 1 nM.

Source of the values: US9255100B2 (BAYER INTELLECTUAL PROPERTY GMBH, priority 2010, dated 2016).
